From patent publication US20110182850A1, “ORGANIC COMPOUNDS AND THEIR USES” (priority 2009, published 2011) come the findings set out here.

pIC50: −log10 of the molar value.

In one assay the target is T1, HCV NS3-4A serine protease (full-length NS3-4A protein, genotype 1a, strain HCV-1) (Hepatitis C virus genotype 1a, UniProt P26664).
T1 construct: using the full-length NS3-4A protein (genotype 1a, strain HCV-1)
T1 sequence (P26664 1658-1711): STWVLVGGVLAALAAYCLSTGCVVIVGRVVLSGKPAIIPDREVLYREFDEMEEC
T1 sequence (P26664 1027-1657): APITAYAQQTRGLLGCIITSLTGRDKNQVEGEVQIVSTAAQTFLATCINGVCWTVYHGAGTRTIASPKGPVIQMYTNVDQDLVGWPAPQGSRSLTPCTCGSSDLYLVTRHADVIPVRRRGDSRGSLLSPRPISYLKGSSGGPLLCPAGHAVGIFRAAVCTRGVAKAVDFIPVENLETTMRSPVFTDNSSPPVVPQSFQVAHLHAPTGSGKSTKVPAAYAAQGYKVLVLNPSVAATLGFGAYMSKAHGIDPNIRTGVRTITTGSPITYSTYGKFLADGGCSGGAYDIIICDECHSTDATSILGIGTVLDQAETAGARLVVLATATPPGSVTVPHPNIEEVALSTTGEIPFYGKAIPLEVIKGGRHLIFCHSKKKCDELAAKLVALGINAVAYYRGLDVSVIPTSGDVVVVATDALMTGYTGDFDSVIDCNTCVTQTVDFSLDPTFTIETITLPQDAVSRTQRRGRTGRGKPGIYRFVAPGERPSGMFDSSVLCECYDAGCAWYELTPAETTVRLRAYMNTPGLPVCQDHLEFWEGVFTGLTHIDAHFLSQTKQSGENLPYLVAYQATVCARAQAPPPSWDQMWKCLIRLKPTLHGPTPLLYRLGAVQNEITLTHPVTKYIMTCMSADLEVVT
Put plainly: HCV NS3-4A protease assay. In kind it is biochemical. The conditions noted are these: Protease IC50. How it is done:
The inhibitory activity of certain compounds of Table A against HCV NS3-4A serine protease is determined in a homogenous assay using the full-length NS3-4A protein (genotype 1a, strain HCV-1) and a commercially available internally-quenched fluorogenic peptide substrate as described by Taliani, M., et al. 1996 Anal. Biochem. 240:60-67, which is incorporated by reference in its entirety.
As for `C=C[C@@H]1C[C@]1(NC(=O)[C@@H]1C[C@@]2(CN1C(=O)[C@@H](NC(=O)[C@@H](NC(=O)C1CCCCN1C(C)C)C(C)(C)C)C(C)(C)C)C(C)(C)C21CCC1)C(=O)NS(C)(=O)=O` (stereo partly drawn) [Compound 94, (5R,8S)-7-[(2S)-2-{[(2S)-2-{[(1-isopropylpiperidin-2-yl)carbonyl]amino}-3,3-dimethylbutanoyl]amino}-3,3-dimethylbutanoyl]-10,10-dimethyl-N-{(1R,2S)-1-[(methylsulfonyl)carbamoyl]-2-vinylcyclopropyl}-7-azadispiro[3.0.4.1]decane-8-carboxamide], the pIC50 was 8.00.

Turning to `C=C[C@@H]1C[C@]1(NC(=O)[C@@H]1C[C@@]2(CN1C(=O)[C@@H](NC(=O)[C@@H](NC(=O)c1ncccn1)C1CCCCC1)C(C)(C)C)C(C)(C)C21CCC1)C(=O)NS(=O)(=O)C1CC1` [Compound 117, (5R,8S)-7-[(2S)-2-({(2S)-2-cyclohexyl-2-[(pyrimidin-2-ylcarbonyl)amino]acetyl}amino)-3,3-dimethylbutanoyl]-N-{(1R,2S)-1-[(cyclopropylsulfonyl)carba-moyl]-2-vinylcyclopropyl}-10,10-dimethyl-7-azadispiro[3.0.4.1]decane-8-carboxamide], the pIC50 was 8.10.

In the case of `CC(C)N1CCCCC1C(=O)N[C@H](C(=O)N[C@H](C(=O)N1C[C@]2(C[C@H]1C(=O)N[C@]1(C(=O)NS(=O)(=O)C3CC3)CC=CCC1)C(C)(C)C21CCC1)C(C)(C)C)C1CCCCC1` (stereo partly drawn) [Compound 25, (5R,8S)-7-[(2S)-2-{[(2S)-2-cyclohexyl-2-{[(1-isopropylpiperidin-2-yl)carbonyl]amino}acetyl]amino}-3,3-dimethylbutanoyl]-N-{(1S)-1-[(cyclopropylsulfonyl)carba-moyl]cyclohex-3-en-1-yl}-10,10-dimethyl-7-azadispiro[3.0.4.1]decane-8-carboxamide], the negative-log IC50 (pIC50) is 6.26.

`C=C[C@@H]1C[C@]1(NC(=O)[C@@H]1C[C@@]2(CN1C(=O)[C@@H](NC(=O)C(NC(=O)c1nccc3ccccc13)C1CCCCC1)C(C)(C)C)C(C)(C)C21CCC1)C(=O)NS(=O)(=O)C1CC1` (stereo partly drawn) [Compound 127, (5R,8S)-7-[(2S)-2-({cyclohexyl[(isoquinolin-1-ylcarbonyl)amino]acetyl}amino)-3,3-dimethylbutanoyl]-N-{(1R,2S)-1-[(cyclopropylsulfonyl)carba-moyl]-2-vinylcyclopropyl}-10,10-dimethyl-7-azadispiro[3.0.4.1]decane-8-carboxamide] had a pIC50 of 8.10.

For the molecule `C=C[C@@H]1C[C@]1(NC(=O)[C@@H]1C[C@@]2(CN1C(=O)[C@@H](NC(=O)[C@@H](NC(=O)C1CCCCN1C(C)C)C(C)(C)C)C(C)(C)C)C(C)(C)C21CCC1)C(=O)NS(=O)(=O)C(C)(C)C` (stereo partly drawn) [Compound 93, (5R,8S)-N-{(1R,2S)-1-[(tert-butylsulfonyl)carbamoyl]-2-vinylcyclopropyl}-7-[(2S)-2-{[(2S)-2-{[(1-isopropylpiperidin-2-yl)carbonyl]amino}-3,3-dimethylbutanoyl]amino}-3,3-dimethylbutanoyl]-10,10-dimethyl-7-azadispiro[3.0.4.1]decane-8-carboxamide], the pIC50 is 8.10.

With `C=C[C@@H]1C[C@]1(NC(=O)[C@@H]1C[C@@]2(CN1C(=O)[C@@H](NC(=O)[C@@H](NC(=O)c1c(C)nn(C)c1C)C(C)(C)C)C(C)(C)C)C(C)(C)C21CCC1)C(=O)NS(=O)(=O)C1CC1` [Compound 137, (5R,8S)-N-{(1R,2S)-1-[(cyclopropylsulfonyl)carba-moyl]-2-vinylcyclopropyl}-7-[(2S)-2-{[(2S)-3,3-dimethyl-2-{[(1,3,5-trimethyl-1H-pyrazol-4-yl)carbonyl]amino}butanoyl]amino}-3,3-dimethylbutanoyl]-10,10-dimethyl-7-azadispiro[3.0.4.1]decane-8-carboxamide], the pIC50 was 7.52.

In turn, `C=C[C@@H]1C[C@]1(NC(=O)[C@@H]1C[C@@]2(CN1C(=O)[C@@H](NC(=O)[C@@H](NC(=O)[C@@H]1CCCN1C(C)C)C1CCCCC1)C(C)(C)C)C(C)(C)C21CCC1)C(=O)NS(=O)(=O)C1(C)CC1` [Compound 72, (5R,8S)-7-[(2S)-2-{[(2S)-2-cyclohexyl-2-({[(2S)-1-isopropylpyrrolidin-2-yl]carbonyl}amino)acetyl]amino}-3,3-dimethylbutanoyl]-10,10-dimethyl-N-[(1R,2S)-1-{[(1-methylcyclopropyl)sulfonyl]carbamoyl}-2-vinylcyclopropyl]-7-azadispiro[3.0.4.1]decane-8-carboxamide] gave a pIC50 of 8.70.

`C=CCC1(S(=O)(=O)NC(=O)[C@@]2(NC(=O)[C@@H]3C[C@@]4(CN3C(=O)[C@@H](NC(=O)[C@@H](NC(=O)[C@@H]3CCCCN3C(C)C)C3CCCCC3)C(C)(C)C)C(C)(C)C43CCC3)C[C@H]2C=C)CC1` [Compound 144, (5R,8S)-N-[(1R,2S)-1-{[(1-allylcyclopropyl)sulfonyl]carba-moyl}-2-vinylcyclopropyl]-7-[(2S)-2-{[(2S)-2-cyclohexyl-2-({[(2S)-1-isopropylpiperidin-2-yl]carbonyl}amino)acetyl]amino}-3,3-dimethylbutanoyl]-10,10-dimethyl-7-azadispiro[3.0.4.1]decane-8-carboxamide] showed a pIC50 of 9.00.

`C=C[C@@H]1C[C@]1(NC(=O)[C@@H]1C[C@@]2(CN1C(=O)[C@@H](NC(=O)[C@@H](NC(=O)[C@H]1CCC(=O)N1)C1CCCCC1)C(C)(C)C)C(C)(C)C21CCC1)C(=O)NS(=O)(=O)C1CC1` [Compound 111, (5R,8S)-7-[(2S)-2-{[(2S)-2-cyclohexyl-2-({[(2R)-5-oxopyrrolidin-2-yl]carbonyl}amino)acetyl]amino}-3,3-dimethylbutanoyl]-N-{(1R,2S)-1-[(cyclopropylsulfonyl)carba-moyl]-2-vinylcyclopropyl}-10,10-dimethyl-7-azadispiro[3.0.4.1]decane-8-carboxamide]: the negative logarithm of the IC50 (pIC50) is 8.70.

The same assay, now with this note: read-out: Protease IC50.
For `C=C[C@@H]1C[C@]1(NC(=O)[C@@H]1C[C@@]2(CN1C(=O)[C@@H](NC(=O)O[C@H](C(=O)N(C)C)C(C)(C)C)C(C)(C)C)C(C)(C)C21CCC1)C(=O)NS(=O)(=O)C1CC1` [Compound 42, (1S)-1-(dimethylcarbamoyl)-2,2-dimethylpropyl [(1S)-1-{[(5R,8S)-8-({(1R,2S)-1-[(cyclopropylsulfonyl)carba-moyl]-2-vinylcyclopropyl}carbamoyl)-10,10-dimethyl-7-azadispiro[3.0.4.1]dec-7-yl]carbonyl}-2,2-dimethylpropyl]carbamate], the negative logarithm of the IC50 (pIC50) is 6.85.

“(5R,8S)-7-[(2S)-2-{[(2S)-2- cyclohexyl-2-({[(2S)-1- isopropylpiperidin-2- yl]carbonyl}amino)acetyl] amino}-3,3-dimethylbutanoyl]-N- {(1R,2S)-1- [(cyclopropylsulfonyl)carba- moyl]-2-vinylcyclopropyl}- 10,10-dimethyl-7- azadispiro[3.0.4.1]decane-8- carboxamide [Compound 21]”: the negative-log IC50 (pIC50) is 9.30.

Regarding `C=C[C@@H]1C[C@]1(NC(=O)[C@@H]1C[C@@]2(CN1C(=O)[C@@H](NC(=O)c1cocn1)C(C)(C)C)C(C)(C)C21CCC1)C(=O)NS(=O)(=O)C1CC1` [Compound 54, (5R,8S)-N-{(1R,2S)-1-[(cyclopropylsulfonyl)carba-moyl]-2-vinylcyclopropyl}-7-{(2S)-3,3-dimethyl-2-[(1,3-oxazol-4-ylcarbonyl)amino]butanoyl}-10,10-dimethyl-7-azadispiro[3.0.4.1]decane-8-carboxamide], the pIC50 is 5.67.

Take `C=C[C@@H]1C[C@]1(NC(=O)[C@@H]1C[C@@]2(CN1C(=O)[C@@H](NC(=O)C1CCCN(C(C)=O)C1)C(C)(C)C)C(C)(C)C21CCC1)C(=O)NS(=O)(=O)C1CC1` (stereo partly drawn) [Compound 19, (5R,8S)-7-[(2S)-2-{[(1-acetylpiperidin-3-yl)carbonyl]amino}-3,3-dimethylbutanoyl]-N-{(1R,2S)-1-[(cyclopropylsulfonyl)carba-moyl]-2-vinylcyclopropyl}-10,10-dimethyl-7-azadispiro[3.0.4.1]decane-8-carboxamide]: the pIC50 is 6.46.

As for “(5R,8S)-7-[(2S)-2- ({cyclohexyl[(1H-pyrazol-4- ylcarbonyl)amino]acetyl} amino)-3,3-dimethylbutanoyl]-N- {(1R,2S)-1- [(cyclopropylsulfonyl)carba- moyl]-2-vinylcyclopropyl}- 10,10-dimethyl-7- azadispiro[3.0.4.1]decane-8- carboxamide [Compound 106]”, the negative logarithm of the IC50 (pIC50) was 9.00.

`C=C[C@@H]1C[C@]1(NC(=O)[C@@H]1C[C@@]2(CN1C(=O)[C@@H](NC(=O)[C@@H](NS(=O)(=O)C(C)C)C(C)(C)C)C(C)(C)C)C(C)(C)C21CCC1)C(=O)NS(=O)(=O)C1CC1` [Compound 58, (5R,8S)-N-{(1R,2S)-1-[(cyclopropylsulfonyl)carba-moyl]-2-vinylcyclopropyl}-7-[(2S)-2-({(2S)-2-[(isopropylsulfonyl)amino]-3,3-dimethylbutanoyl}amino)-3,3-dimethylbutanoyl]-10,10-dimethyl-7-azadispiro[3.0.4.1]decane-8-carboxamide]: the pIC50 was 6.40.

In the case of `C=C[C@@H]1C[C@]1(NC(=O)[C@@H]1C[C@@]2(CN1C(=O)[C@@H](NC(=O)NC13CC4CC(CC(C4)C1)C3)C(C)(C)C)C(C)(C)C21CCC1)C(=O)NS(=O)(=O)C1CC1` [Compound 37, (5R,8S)-7-{(2S)-2-[(adamantan-1-ylcarbamoyl)amino]-3,3-dimethylbutanoyl}-N-{(1R,2S)-1-[(cyclopropylsulfonyl)carba-moyl]-2-vinylcyclopropyl}-10,10-dimethyl-7-azadispiro[3.0.4.1]decane-8-carboxamide], the pIC50 was 7.35.
